Laboratory results: patent publication US12116364B2, “Heteroaryl compounds and uses thereof” (APRINOIA THERAPEUTICS INC., priority 2018, dated 2024)

Columns and labels:
[1] = target: recombinant tau proteins (human Tau, heparin-fiberized) (Homo sapiens, UniProt P10636); assay: Fluorescence quantitative Tau binding assay in vitro; conditions: 0.04 uM fiberized recombinant tau, 30 mM Tris pH 7.5, 1 h, fluorometric saturation curve
Protocol: Expression and Purification of Human Tau Protein
• pET41a-Tau wild type • One Shot® BL21(DE3) Chemically Competent E. coli (Invitrogen, C600003) • Kanamycin sulfate (Sangon Biotech, A506636) • IPTG (Sangon Biotech, A100487) • Pipes buffer (100 mM Pipes, pH6.8, 1 mM EGTA, 1 mM MgSO4) • Hepes buffer (25 mM Hepes, pH7.2, 0.1 mM EDTA, 0.5 mM DTT, 100 mM NaCl) • Q-Sepharose Fast Flow column (GE Healthcare, 17-0510-01) • SP-Sepharose Fast Flow column (GE Healthcare, 17-0729-01) Procedures: Protein Expression: • Step 1: Transform 1 uL expression plasmid pET41a-tau wt into one One Shot® BL21(DE3) Chemically Competent E. coli, on ice 30 min. • Step 2: 42° C. heat shock 90 second and on ice 2 min, 37° C. recovery for 30 min, Plate small amount on LB(Kan+) agar plate incubate overnight at 37° C. • Step 3: Pick and resuspend a single colony in 200 mL liquid culture with 50 ug/mL Kanamycin to produce a starter culture. Inoculate starter culture and shake 200 rpm overnight at 37° C. • Step 4: Add 100× dilution Starter into fresh culture medium (Kan+) shake 200 rpm at 37° C. until OD600=0.8. • Step 5: Add IPTG (final conc. 1 mM) and express protein for 3 hr. • Step 6: Collect cell pellet and store at −80° C. for purification. Protein Purification: • Step 1: Cell pellet was resuspended in Pipes buffer. • Step 2: Sonication and centrifugation (15,000 rpm, 15 min at 4° C. • Step 3: The supernatant was placed in a boiling water bath for 20 min and subsequently centrifuged. The heat-stable proteins in the supernatant were loaded onto a Q-Sepharose Fast Flow column (20 mL) • Step 4: The flow through containing tau was loaded onto SP-Sepharose Fast Flow column (10 mL), eluted with Pipes buffer containing 0.2M NaCl. • Step 6: Fractions containing tau were pooled, concentrated and dialyzed against Hepes buffer, stored at −80° C. • Step 7: Reload SP-Flow through into Q-Sepharose Fast Flow column (20 mL) and SP-Sepharose Fast Flow column (10 mL) again, eluted with Pipes buffer containing 0.2M NaCl. • Step 8: Fractions containing tau were pooled, concentrated and dialyzed against Hepes buffer, stored at −80° C. Repeat step 6-7 twice, Collect all above all elution product and concentrated. Biological Assays Fluorescence Quantitative Tau Binding Assay In Vitro
2 uM of recombinant tau proteins and 15 uM of heparin were fiberized in 30 mM Tris (pH 7.5) buffer by overnight incubation at 37° C. 0.04 uM of recombinant tau proteins which was diluted in 30 mM Tris buffer (pH 7.5) was then reacted with test compounds (containing 1% DMSO) for 1 h. Regarding the fluorometric data, the binding saturation curve was created and the parameter estimation method was conducted using Prism software (GraphPad). Kd values were determined for each of test compounds. Table A lists Kd values of exemplary test compounds.

[2] = tested on: tau aggregates (tangles/threads) in temporal cortex sections of an AD brain; assay: Histological examination by fluorescence staining of AD brain sections; assay type: binding, human; conditions: 0.001% (W/V) compound in 50% ethanol, 30 min, relative to PBB3; for Fluorescent binding Tangle: score for tangles; for Fluorescent binding Thread: score for threads
Protocol: The fluorescence binding assessment was performed as reported previously^1. For fluorescence labeling with PBB3 and test compounds, deparaffinized temporal cortex sections of an AD brain were incubated in 50% ethanol containing 0.001% (W/V) of PBB3 or test compound at room temperature for 30 min. The samples were rinsed with 50% ethanol for 5 min, dipped into distilled water twice for 3 min, and mounted in non-fluorescent mounting media ([…]; Vector Laboratories). Fluorescence images were captured using a DM4000 microscope (Leica) equipped with a custom filter cube for PBB3 (excitation band-pass at 391-437 nm and suppression low-pass with 458 nm cutoff).

[3] = target: [11C]PBB3 binding sites (tau aggregates) in temporal cortex homogenates of an Alzheimer's disease patient (Homo sapiens, UniProt P10636); assay: Fluorescence competitive binding assay in vitro ([11C]PBB3 displacement in Alzheimer's disease temporal cortex homogenates); conditions: 5 nM [11C]PBB3, AD temporal cortex homogenate (100 μg tissue), 30 min, room temperature
[11C]PBB3 binding sites (tau aggregates) in temporal cortex homogenates of an Alzheimer's disease patient, sequence (P10636 623-695 limits assumed): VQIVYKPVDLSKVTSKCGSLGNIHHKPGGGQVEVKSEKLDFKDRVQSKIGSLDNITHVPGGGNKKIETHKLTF
Protocol: Fluorescence competitive binding assay in vitro was performed as reported previously1. Frozen tissues derived from the temporal cortex of an Alzheimer's disease patient was homogenized in 50 mM Tris-HCl buffer, pH 7.4, containing protease inhibitor cocktail (cOmplete™, EDTA-free; Roche), and stored at −80° C. pending analyses. To assay radioligand binding with homologous or heterologous blockade, these homogenates (100 μg tissue) were incubated with 5 nM [11C]PBB3 (molar radioactivity: 100-150 GBq/μmol) in the absence or presence of unlabeled PBB3 at varying concentrations ranging from 10-11-106 M in Tris-HCl buffer containing 10% ethanol, pH 7.4, for 30 min at room temperature. Non-specific binding of [11C]PBB3 was determined in the presence of 5×10^−7 M PBB3. Samples were run once only and specific radioligand binding was determined as pmol/g tissue. Inhibition constant (Ki) and percentage of displacement were determined by using non-linear regression to fit a concentration-binding plot to one-site and two-site binding models derived from the Cheng-Prusoff equation with GraphPad Prism version 6.0 (GraphPad Software), followed by F-test for model selection. In a one-site homologous blockade model, dissociation constant (Kd) was calculated from homologous competitive binding using this function: Kd=Ki=IC50−Radioligand
where IC50 and [Radioligand] stand for the concentration of the competitor inducing 50% inhibition and radioligand concentration, respectively. Experiments with [^11C]PBB3 and unlabeled PBB3 were performed in a dimly lit condition to avoid photoconversion of the compounds. Table B lists Ki values of exemplary test compounds.

recombinant tau proteins (human Tau, heparin-fiberized), sequence (P10636 whole entry): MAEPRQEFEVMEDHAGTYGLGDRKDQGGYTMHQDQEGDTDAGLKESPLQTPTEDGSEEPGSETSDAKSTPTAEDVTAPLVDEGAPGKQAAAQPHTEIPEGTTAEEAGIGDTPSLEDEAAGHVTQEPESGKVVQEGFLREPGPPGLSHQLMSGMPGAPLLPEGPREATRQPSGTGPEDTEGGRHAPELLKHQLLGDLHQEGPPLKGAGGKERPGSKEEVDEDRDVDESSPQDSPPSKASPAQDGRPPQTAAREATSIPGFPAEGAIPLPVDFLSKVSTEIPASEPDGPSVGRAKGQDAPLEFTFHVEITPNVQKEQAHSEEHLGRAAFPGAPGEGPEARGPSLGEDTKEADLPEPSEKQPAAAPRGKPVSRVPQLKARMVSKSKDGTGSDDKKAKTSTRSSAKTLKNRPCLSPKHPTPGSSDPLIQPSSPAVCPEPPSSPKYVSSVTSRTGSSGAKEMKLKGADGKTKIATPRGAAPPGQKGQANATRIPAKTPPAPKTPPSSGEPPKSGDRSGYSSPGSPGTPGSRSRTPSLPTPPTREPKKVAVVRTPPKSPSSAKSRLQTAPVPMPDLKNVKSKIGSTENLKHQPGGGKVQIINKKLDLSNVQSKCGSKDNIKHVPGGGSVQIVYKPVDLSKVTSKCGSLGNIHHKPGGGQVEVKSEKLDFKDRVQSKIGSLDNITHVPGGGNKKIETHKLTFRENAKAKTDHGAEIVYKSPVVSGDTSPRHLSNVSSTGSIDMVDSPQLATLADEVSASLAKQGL

With Nc1cccc(-c2ccc(-c3cc4ccncc4[nH]3)cc2)c1 [Compound A, 3-[4-(1H-Pyrrolo[2,3-c]pyridin-2-yl)phenyl]aniline] the Kd [1] was 500 nM, the “Fluorescent binding Tangle” value [2] was 2/2 and the “Fluorescent binding Thread” value [2] was 2/2. The Ki [3] was 45 nM.
In the case of CNc1ccc(-c2ccc(-c3cc4cc(F)ncc4[nH]3)cc2)cn1 [Compound B, 5-(4-(5-Fluoro-1H-pyrrolo[2,3-c]pyridin-2-yl)phenyl)-N-methylpyridin-2-amine], the Kd [1] is reported as 990 nM, the “Fluorescent binding Tangle” value [2] is reported as 3/3 and the “Fluorescent binding Thread” value [2] is reported as 3/3. The Ki [3] was 2 nM.
In the case of CNc1ccc(-c2ccc(-c3cc4ccnc(O)c4[nH]3)cc2)cn1 [Compound C, 2-(4-(6-(Methylamino)pyridin-3-yl)phenyl)-1H-pyrrolo[2,3-c]pyridin-7-ol], the Kd [1] is reported as 250 nM, the “Fluorescent binding Tangle” value [2] is reported as 2 and the “Fluorescent binding Thread” value [2] is reported as 1.5. It also gave a Ki [3] of 25 nM.
For CNc1ccc(-c2ccc(-c3cc4ccncc4[nH]3)cc2)c(F)n1 [Compound D, 5-(4-(1H-Pyrrolo[2,3-c]pyridin-2-yl)phenyl)-6-fluoro-N-methylpyridin-2-amine], the Kd [1] was 690 nM, the “Fluorescent binding Tangle” value [2] was 3/3 and the “Fluorescent binding Thread” value [2] was 3/3. It also gave a Ki [3] of 1 nM.
CNc1ccc(-c2ccc(-c3cc4ccncc4[nH]3)c(F)n2)cn1 [Compound E, 6-Fluoro-N-methyl-5-(1H-pyrrolo[2,3-c]pyridin-2-yl)-2,3′-bipyridin-6′-amine] was tested, and the Kd [1] was 2700 nM, the “Fluorescent binding Tangle” value [2] was 3/3 and the “Fluorescent binding Thread” value [2] was 3/3. It also gave a Ki [3] of 5 nM.
COc1ccc(-c2ccc(-c3cc4ccn(CCO)cc-4n3)cc2)cc1 [Compound F, 2-(2-(4′-Methoxybiphenyl-4-yl)-6H-pyrrolo[2,3-c]pyridine-6-yl)ethanol] showed a Kd [1] of 340 nM.
CN(C)c1ccc(-c2ccc(-c3cc4ccn(CC(O)CF)cc-4n3)cc2)cn1 (centres unmarked) [Compound G, 1-(2-(4-(6-(Dimethylamino)pyridin-3-yl)phenyl)-6H-pyrrolo[2,3-c]pyridin-6-yl)-3-fluoropropan-2-ol] was tested, and the Kd [1] was 280 nM, the “Fluorescent binding Tangle” value [2] was 2 and the “Fluorescent binding Thread” value [2] was 0.5. It also gave a Ki [3] of 10 nM.
In the case of Nc1ccc(-c2ccc(-c3nc4ccncc4o3)cc2)cn1 [Compound H, 5-(4-(Oxazolo[5,4-c]pyridin-2-yl)phenyl)pyridin-2-amine], the Kd [1] is reported as 90 nM.
For Nc1ccc2nc(-c3ccc(-c4ccc(NCCF)nc4)cc3)sc2c1 [Compound I, 2-(4-(6-((2-Fluoroethyl)amino)pyridin-3-yl)phenyl)benzo[d]thiazol-6-amine], the Kd [1] was 800 nM, the “Fluorescent binding Tangle” value [2] was 2 and the “Fluorescent binding Thread” value [2] was 1.5. For the same molecule, the Ki [3] was 5 nM.
For CNc1ccc(-c2ccc(-c3nc4ccc(NCC(O)CF)cc4s3)cc2)cn1 (centres unmarked) [Compound J, 1-Fluoranyl-3-[[2-[4-[6-(methylamino)pyridin-3-yl]phenyl]-1,3-benzothiazol-6-yl]amino]propan-2-ol], the Kd [1] was 890 nM, the “Fluorescent binding Tangle” value [2] was 3/3 and the “Fluorescent binding Thread” value [2] was 3/3. The Ki [3] was 5 nM.
Molecule CN(C)c1ccc(-c2ccc(-c3nc4ccncc4n3CCF)cc2)cn1 [Compound K, 5-[4-[3-(2-fluoranylethyl)imidazo[4,5-c]pyridin-2-yl]phenyl]-N,N-dimethyl-pyridin-2-amine] has a Kd [1] of 3500 nM.
For Nc1ccc(-c2ccc(-c3cc4cnccc4[nH]3)cc2)cc1F [Compound L, 3-Fluoro-4′-(1H-pyrrolo[3,2-c]pyridin-2-yl)biphenyl-4-amine], the Kd [1] was 540 nM, the “Fluorescent binding Tangle” value [2] was 2.5 and the “Fluorescent binding Thread” value [2] was 1.5. It also gave a Ki [3] of 5 nM.
For CNc1ccc(-c2ccc(-c3cc4cnccc4[nH]3)cc2)cn1 [Compound M, 5-(4-(1H-Pyrrolo[3,2-c]pyridin-2-yl)phenyl)-N-methylpyridin-2-amine], the Kd [1] was 2630 nM, the “Fluorescent binding Tangle” value [2] was 2.5 and the “Fluorescent binding Thread” value [2] was 2. The Ki [3] was 15 nM.
With CNc1ccc(-c2ccc(-c3cn4cc(OCC(O)CF)ccc4n3)cc2)cn1 (centres unmarked) [Compound N, 1-Fluoro-3-(2-(4-(6-(methylamino)pyridin-3-yl)phenyl)imidazo[1,2-a]pyridin-6-yloxy)propan-2-ol] the Kd [1] was 260 nM, the “Fluorescent binding Tangle” value [2] was 0.5 and the “Fluorescent binding Thread” value [2] was 0. It also gave a Ki [3] of 20 nM.
For CN(C)c1ccc(-c2ccc(-c3cn4cc(OCC(O)CF)ccc4n3)cc2)cn1 (centres unmarked) [Compound O, 1-(2-(4-(6-(Dimethylamino)pyridin-3-yl)phenyl)imidazo[1,2-a]pyridin-6-yloxy)-3-fluoropropan-2-ol], the Kd [1] was 270 nM, the “Fluorescent binding Tangle” value [2] was 1.5/1.5 and the “Fluorescent binding Thread” value [2] was 1.5/1.5. The Ki [3] was 10 nM.
CNc1ccc(-c2ccc(-c3cn4cc(NCC(O)CF)ccc4n3)cc2)cn1 (centres unmarked) [Compound P, 1-Fluoro-3-(2-(4-(6-(methylamino)pyridin-3-yl)phenyl)imidazo[1,2-a]pyridin-6-ylamino)propan-2-ol] was tested, and the Kd [1] was 370 nM, the “Fluorescent binding Tangle” value [2] was 1 and the “Fluorescent binding Thread” value [2] was 0. For the same molecule, the Ki [3] was 45 nM.
For COc1ccc2nc(-c3ccc(-c4ccc(N(C)C)nc4F)cc3)cn2c1 [Compound Q, 6-Fluoranyl-5-[4-(6-methoxyimidazo[1,2-a]pyridin-2-yl)phenyl]-N,N-dimethyl-pyridin-2-amine], the Kd [1] was 520 nM, the “Fluorescent binding Tangle” value [2] was 1 and the “Fluorescent binding Thread” value [2] was 0.5. It also gave a Ki [3] of 5 nM.
COc1ccc2nc(-c3ccc(-c4ccc(N(C)C)nc4)nc3F)cn2c1 [Compound U, 6-Fluoro-5-(6-methoxyimidazo[1,2-a]pyridin-2-yl)-N,N-dimethyl-2,3′-bipyridin-6′-amine] showed a Kd [1] of 1510 nM.
Work on CN(C)c1ccc(-c2ccc(-c3nc4ccc(NCC(O)CF)cc4s3)c(F)n2)cn1 (centres unmarked) [Compound X, 1-[[2-[6-[6-(dimethylamino)pyridin-3-yl]-2-fluoranyl-pyridin-3-yl]-1,3-benzothiazol-6-yl]amino]-3-fluoranyl-propan-2-ol] yielded a Kd [1] of 170 nM.
CNc1ncc(-c2ccc(-c3nc4ccc(N)cc4s3)c(F)n2)cn1 [Compound Y, 2-[2-Fluoranyl-6-[2-(methylamino)pyrimidin-5-yl]pyridin-3-yl]-1,3-benzothiazol-6-amine] gave a Kd [1] greater than 10000 nM.
